Results on 14 compounds are retold here after publication PMC9000871, “Rhodamine 101 Conjugates of Triterpenoic Amides Are of Comparable Cytotoxicity as Their Rhodamine B Analogs” (Molecules, 2022).

One series deals with A375 (melanoma). The series is described as follows: SRB cytotoxicity assay, A375. Format: cell-based, human. The note with it: Homo sapiens, A-375, 72 h, 72 h of treatment, mean ± standard mean error. The text has this: (§1) The cell lines were obtained from Department of Oncology (Martin-Luther-University Halle Wittenberg; they were bought from ATCC; A 375 (CRL-1619), HT29 (HTB-38), MCF7 (HTM-22), A2780 (HTP-77), FaDu (HTP-43), NIH 3T3 (CRL-1658), HEK-293 (CRL-1573)). Cultures were maintained as monolayers in RPMI 1640 medium with L-glutamine (Capricorn Scientific GmbH, Ebsdorfergrund, Germany) supplemented with 10% heat inactivated fetal bovine serum (Sigma-Aldrich Chemie GmbH, Steinheim, Germany) and penicillin/streptomycin (1%, Capricorn Scientific GmbH, Ebsdorfergrund, Germany) at 37 °C in a humidified atmosphere with 5% CO2. The cytotoxicity of the compounds was evaluated using the sulforhodamine-B (Kiton-Red S, ABCR) micro culture colorimetric assay using confluent cells in 96-well plates with the seeding of the cells on day 0 applying appropriate cell densities to prevent confluence of the cells during the period of the experiment. On day 1, the cells were treated with six different concentrations (1, 3, 7, 12, 20, and 30 μM); thereby, the final concentration of DMSO was always <0.5%, generally regarded as non-toxic to the cells. On day 4, the supernatant medium was discarded; the cells were fixed with 10% trichloroacetic acid. After another day at 4 °C, the cells were washed in a strip washer and dyed with the SRB solution (100 μL, 0.4% in 1% acetic acid) for about 20 min to be followed by washing of the plates (four times, 1% acetic acid) and air-drying overnight. Furthermore, tris base solution (200 μL, 10 mM) was added to each well and absorbance was measured at λ = 570 nm employing a reader (96 wells, Tecan Spectra, Crailsheim, Germany). The EC50 values were averaged from three independent experiments performed each in triplicate calculated from semi logarithmic dose response curves applying a non-linear four-parameter Hills-slope equation (GraphPad Prism5; variables top and bottom were set to 100 and 0, respectively).
(In general: The SRB assay estimates cell density from bound dye.)

Series [1] relates to HT29 (colon adenocarcinoma). Briefly: SRB cytotoxicity assay, HT29. To be noted: Homo sapiens, HT-29, 72 h, 72 h of treatment, mean ± standard mean error. Format: cell-based, human.
Excerpt: as §1

Series [2] has as its system MCF-7 (breast adenocarcinoma). Briefly: SRB cytotoxicity assay, MCF-7. The note with it: Homo sapiens, MCF7, 72 h of treatment, mean ± standard mean error. It counts as cell-based.
Excerpt: as §1

Series [3] deals with A2780 (ovarian carcinoma). Briefly: SRB cytotoxicity assay, A2780. Format: cell-based. The note with it: Homo sapiens, 72 h of treatment, mean ± standard mean error.
Excerpt: as §1

Series [4] relates to NIH 3T3 (fibroblasts), non-malignant. Briefly: SRB cytotoxicity assay, NIH 3T3. It counts as cell-based. To be noted: Mus musculus, NIH3T3, 72 h, 72 h of treatment, mean ± standard mean error.
Excerpt: as §1

Where a name gives a salt, the structure may show the parent alone.

As for `C=C(C)[C@@H]1CC[C@]2(C(=O)N3CCCN(C(=O)c4ccccc4-c4c5ccc(=[N+](CC)CC)cc-5oc5cc(N(CC)CC)ccc45)CC3)CC[C@]3(C)C(CCC4[C@@]5(C)CC[C@H](OC(C)=O)C(C)(C)C5CC[C@]43C)C12` (stereo partly drawn) (as salt: chloride) (hydrate or solvate) [compound 17, 9-[2-[[4-(3β-Acetyloxy-28-oxo-30-norlupan-28-yl)-1-homopiperazinyl]carbonyl]phenyl]-3,6-bis(diethylamino)-xanthylium chloride], the melting point (in general, the temperature, or range, at which the solid turns liquid) was 261 to 266 °C.

`CCN(CC)c1ccc2c(-c3ccccc3C(=O)N3CCCN(C(=O)[C@]45CCC(C)(C)CC4C4=CCC6[C@@]7(C)CC[C@H](OC(C)=O)C(C)(C)C7CC[C@@]6(C)[C@]4(C)CC5)CC3)c3ccc(=[N+](CC)CC)cc-3oc2c1` (stereo partly drawn) (as salt: chloride) (hydrate or solvate) [compound 18, 9-[2-[[4-(3β-Acetyloxy-28-oxo-olean-12-en-28-yl]-1-homopiperazinyl]carbonyl]phenyl]-3,6-bis(diethylamino)-xanthylium chloride] displayed a melting point of 235 to 241 °C.

For the compound `CCN(CC)c1ccc2c(-c3ccccc3C(=O)N3CCCN(C(=O)[C@]45CC[C@@H](C)[C@H](C)C4C4=CCC6[C@@]7(C)CC[C@H](OC(C)=O)C(C)(C)C7CC[C@@]6(C)[C@]4(C)CC5)CC3)c3ccc(=[N+](CC)CC)cc-3oc2c1` (stereo partly drawn) (as salt: chloride) (hydrate or solvate) [compound 19, 9-[2-[[4-(3β-Acetyloxy-28-oxo-urs-12-en-28-yl]-1-homopiperazinyl]carbonyl]phenyl]-3,6-bis(diethylamino)-xanthylium chloride], the melting point is 238 to 246 °C.

In turn, `C=C(C)[C@@H]1CC[C@]2(C(=O)N3CCN(C(=O)c4ccccc4-c4c5ccc(=[N+](CC)CC)cc-5oc5cc(N(CC)CC)ccc45)CC3)CC[C@]3(C)C(CCC4[C@@]5(C)CC[C@H](OC(C)=O)C(C)(C)C5CC[C@]43C)C12` (stereo partly drawn) (as salt: chloride) [compound 13, 9-[2-[[4-(3β-Acetyloxy-28-oxo-lup-20(29)en-28-yl)-1-piperazinyl]carbonyl]phenyl]-3,6-bis(diethylamino)-xanthylium chloride] gave a melting point of 247 to 252 °C.

`C=C(C)[C@@H]1CC[C@]2(C(=O)N3CCNCC3)CC[C@]3(C)C(CCC4[C@@]5(C)CC[C@H](OC(C)=O)C(C)(C)C5CC[C@]43C)C12` (stereo partly drawn) [compound 5, 3β-Acetyloxy-28-(1-piperazinyl)-lup-20(29)en-28-one]: the EC50 (usually the concentration that produces a half-maximal response) with A375 (melanoma) was determined as 1500 ± 300 nM; in series [1] it was 1000 ± 100 nM; in series [2] it was 1400 ± 100 nM; in series [3] it was 1900 ± 100 nM; in series [4], 900 ± 100 nM.

On to `C=C(C)[C@@H]1CC[C@]2(C(=O)N3CCCNCC3)CC[C@]3(C)C(CCC4[C@@]5(C)CC[C@H](OC(C)=O)C(C)(C)C5CC[C@]43C)C12` (stereo partly drawn) [compound 9, 3β-Acetyloxy-28-(1-homopiperazinyl)-lup-20(29)en-28-one], for which the EC50 turned out to be 18700 ± 1600 nM in the series with A375 (melanoma); 5100 ± 1100 nM in series [1]; 10700 ± 1000 nM in series [2]; 12000 ± 600 nM in series [3]; 18700 ± 1600 nM in series [4].

Take `C=C(C)[C@@H]1CC[C@]2(C(=O)N3CCN(C(=O)c4ccccc4-c4c5ccc(=[N+](CC)CC)cc-5oc5cc(N(CC)CC)ccc45)CC3)CC[C@]3(C)C(CCC4[C@@]5(C)CC[C@H](OC(C)=O)C(C)(C)C5CC[C@]43C)C12` (stereo partly drawn) [compound 13, 9-[2-[[4-(3β-Acetyloxy-28-oxo-lup-20(29)en-28-yl)-1-piperazinyl]carbonyl]phenyl]-3,6-bis(diethylamino)-xanthylium chloride]: the EC50 was 90 ± 10 nM in the series with A375 (melanoma); 151 ± 22 nM in series [1]; 81 ± 5 nM in series [2]; 50 ± 4 nM in series [3]; 208 ± 34 nM in series [4].

Consider `CCN(CC)c1ccc2c(-c3ccccc3C(=O)N3CCN(C(=O)[C@]45CCC(C)(C)CC4C4=CCC6[C@@]7(C)CC[C@H](OC(C)=O)C(C)(C)C7CC[C@@]6(C)[C@]4(C)CC5)CC3)c3ccc(=[N+](CC)CC)cc-3oc2c1` (stereo partly drawn) [compound 14, 9-[2-[[4-(3β-Acetyloxy-28-oxo-olean-12-en-28-yl)-1-piperazinyl]carbonyl]phenyl]-3,6-bis(diethylamino)-xanthylium chloride], for which the 50% effective concentration (EC50) in the series with A375 (melanoma) is 90 ± 10 nM; in series [1], 91 ± 10 nM; in series [2] it was 62 ± 4 nM; in series [3] it was 32 ± 1 nM; in series [4], 137 ± 6 nM.

As for `CCN(CC)c1ccc2c(-c3ccccc3C(=O)N3CCN(C(=O)[C@]45CC[C@@H](C)[C@H](C)C4C4=CCC6[C@@]7(C)CC[C@H](OC(C)=O)C(C)(C)C7CC[C@@]6(C)[C@]4(C)CC5)CC3)c3ccc(=[N+](CC)CC)cc-3oc2c1` (stereo partly drawn) [compound 15, 9-[2-[[4-(3β-Acetyloxy-28-oxo-ursan-12-en-28-yl)-1-piperazinyl]carbonyl]phenyl]-3,6-bis(diethylamino)-xanthylium chloride], the EC50 in the series with A375 (melanoma) amounted to 40 ± 20 nM; in series [1] it was 83 ± 7 nM; in series [2], 75 ± 5 nM; in series [3], 38 ± 2 nM; in series [4], 137 ± 9 nM.

On to `CCN(CC)c1ccc2c(-c3ccccc3C(=O)N3CCN(C(=O)[C@]45CC[C@@H](C(C)=O)C4C4CCC6[C@@]7(C)CC[C@H](OC(C)=O)C(C)(C)C7CC[C@@]6(C)[C@]4(C)CC5)CC3)c3ccc(=[N+](CC)CC)cc-3oc2c1` (stereo partly drawn) [compound 16, 9-[2-[[4-(3β-Acetyloxy-20,28-dioxo-30-norlupan-28-yl)-1-piperazinyl]carbonyl]phenyl]-3,6-bis(diethylamino)-xanthylium chloride], for which the EC50 in the series on A375 (melanoma) was found to be 80 ± 30 nM; in series [1], 99 ± 16 nM; in series [2] it was 70 ± 2 nM; in series [3], 36 ± 1 nM; in series [4] it was 171 ± 6 nM.

In the case of `C=C(C)[C@@H]1CC[C@]2(C(=O)N3CCCN(C(=O)c4ccccc4-c4c5ccc(=[N+](CC)CC)cc-5oc5cc(N(CC)CC)ccc45)CC3)CC[C@]3(C)C(CCC4[C@@]5(C)CC[C@H](OC(C)=O)C(C)(C)C5CC[C@]43C)C12` (stereo partly drawn) [compound 17, 9-[2-[[4-(3β-Acetyloxy-28-oxo-30-norlupan-28-yl)-1-homopiperazinyl]carbonyl]phenyl]-3,6-bis(diethylamino)-xanthylium chloride], the concentration for a half-maximal effect (EC50) came out at 760 ± 90 nM in the series on A375 (melanoma); 280 ± 10 nM in series [1]; 220 ± 20 nM in series [2]; 220 ± 10 nM in series [3]; 330 ± 70 nM in series [4].

Regarding `CCN(CC)c1ccc2c(-c3ccccc3C(=O)N3CCCN(C(=O)[C@]45CCC(C)(C)CC4C4=CCC6[C@@]7(C)CC[C@H](OC(C)=O)C(C)(C)C7CC[C@@]6(C)[C@]4(C)CC5)CC3)c3ccc(=[N+](CC)CC)cc-3oc2c1` (stereo partly drawn) [compound 18, 9-[2-[[4-(3β-Acetyloxy-28-oxo-olean-12-en-28-yl]-1-homopiperazinyl]carbonyl]phenyl]-3,6-bis(diethylamino)-xanthylium chloride], the EC50 with A375 (melanoma) was determined as 40 ± 10 nM; in series [1] it was 40 ± 10 nM; in series [2] it was 30 ± 4 nM; in series [3], 20 ± 3 nM; in series [4], 140 ± 20 nM.

Turning to `CCN(CC)c1ccc2c(-c3ccccc3C(=O)N3CCCN(C(=O)[C@]45CC[C@@H](C)[C@H](C)C4C4=CCC6[C@@]7(C)CC[C@H](OC(C)=O)C(C)(C)C7CC[C@@]6(C)[C@]4(C)CC5)CC3)c3ccc(=[N+](CC)CC)cc-3oc2c1` (stereo partly drawn) [compound 19, 9-[2-[[4-(3β-Acetyloxy-28-oxo-urs-12-en-28-yl]-1-homopiperazinyl]carbonyl]phenyl]-3,6-bis(diethylamino)-xanthylium chloride], the EC50 in the series with A375 (melanoma) came out at 510 ± 50 nM; in series [1], 500 ± 70 nM; in series [2], 390 ± 40 nM; in series [3], 450 ± 30 nM; in series [4], 400 ± 30 nM.

For the compound `CCN(CC)c1ccc2c(-c3ccccc3C(=O)N3CCCN(C(=O)[C@]45CC[C@@H](C(C)=O)C4C4CCC6[C@@]7(C)CC[C@H](OC(C)=O)C(C)(C)C7CC[C@@]6(C)[C@]4(C)CC5)CC3)c3ccc(=[N+](CC)CC)cc-3oc2c1` (stereo partly drawn) [compound 20, 9-[2-[[4-(3β-Acetyloxy-20,28-dioxo-30-norlupan-28-yl)-1-homopiperazinyl]carbonyl]phenyl]-3,6-bis(diethylamino)-xanthylium chloride], the EC50 in the series on A375 (melanoma) amounted to 240 ± 17 nM; in series [1] it was 300 ± 27 nM; in series [2], 150 ± 50 nM; in series [3] it was 120 ± 18 nM; in series [4], 340 ± 56 nM.
